Measured values published in publication PMC4535766, “Antiprotozoal Activity Profiling of Approved Drugs: A Starting Point toward Drug Repositioning” (PLoS ONE, 2015).

Key:
T. brucei = system: T. brucei; set-up: method as in PMID 11302796; settings: cited from earlier work
[1] = system: T. b. rhodesiense strain STIB 900, trypomastigotes; assay: in vitro
Method: (§1) Drug stock solutions (10mg/ml) were in DMSO (100%). […] Selectivity index (SI) was calculated as IC50 L6 cells/IC50 parasite.

L6 cells = assay: Cytotoxicity on L6 cells; settings: read-out: IC50 Cytotox. L6; L6 cells; means of two independent assays
Method: as §1

[2] = system: T. cruzi, strain Tulahuen C4, intracellular amastigotes; assay: microbe, parasite or virus in culture; settings: read-out: IC50 T. cruzi; strain Tulahuen C4, intracellular amastigotes; means of two independent assays
Method: as §1

[3] = system: axenic amastigotes of L. donovani, strain MHOM-ET-67/L82; assay: In vitro activity against L. donovani axenic amastigotes, serial drug dilution assay; format: cell-based, Leishmania donovani; settings: axenic amastigotes, strain MHOM-ET-67/L82; means of two independent assays; read-out: IC50 L. don. axen.
Method: as §1

[4] = system: intracellular amastigotes of L. donovani strain MHOM-ET-67/L82; assay: Activity against Leishmania donovani intracellular amastigotes in mouse peritoneal macrophages
In short: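 Axenic amastigotes grown at pH 5.4 infected mouse peritoneal macrophages for 4 h before free parasites were washed off. Next day, seven 3-fold drug dilutions (30–0.04 μg/ml) were added for 96 h. Giemsa-stained infected macrophages were counted, burden reduction was taken vs untreated controls, and IC50 came from linear regression.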

P. falciparum strain K1 = assay: In vitro activity against P. falciparum, serial drug dilution assay; settings: read-out: IC50 P. falc. K1; strain K1; means of two independent assays
Method: as §1

[5] = system: macrophages infected with L. donovani; assay: Cytotoxicity on macrophages infected with L. donovani; format: cell-based, mouse; settings: macrophages infected with L. donovani; read-out: IC50 Cytotox. mac.inf.
[6] = system: T.b.rhodesiense (STIB900); assay: T.b.rhodesiense (STIB900) acute mouse model; format: in vivo; settings: daily oral administration of up to 25 mg/kg over a 4 day period, acutely infected mouse model
Method: The STIB900 acute mouse model mimics the first stage of the disease. Four female NMRI mice were used per experimental group. Each mouse was inoculated i.p. with 10^4 bloodstream forms of STIB900, respectively. Heparinized blood from a donor mouse with approximately 5x10^6 /ml parasitaemia was suspended in PSG to obtain a trypanosome suspension of […]. Each mouse was injected with 0.25 ml. Compounds were formulated in 100% DMSO, diluted 10-fold in distilled water. Compound treatment was initiated 3 days post-infection on four consecutive days for all administration routes (i.p., p.o.) in a volume of 0.1 ml/10 g. Three mice served as infected-untreated controls. […] Parasitaemia was monitored using smears of tail-snip blood twice a week after treatment for two weeks followed by once a week until 60 days post-infection. Mice are considered cured when there is no parasitaemia relapse detected in the tail blood over the 60-day observation period. Mean relapse days were determined as day of relapse post-infection of mice.

[7] = set-up: method as in PMID 6813497; settings: cited from earlier work
Entamoeba histolytica = settings: cited from earlier work
[8] = rats, oral single dose 6.7 mg /kg

Compound | Times more effective than rimantadine (T. brucei) | Selectivity index: IC50 Cytotoxicity L6/ IC50 T. b. rhodesiense [1] | IC50 ([1]; read-out: IC50 T. b. rhod., strain STIB 900, trypomastigotes, means of two independent assays) | IC50 (L6 cells) | IC50 [2] | IC50 [3] | Activity against intracellular amastigotes at a fixed concentration [4] | IC50 ([4]; read-out: IC50 L. don. intracell, intracellular amastigotes in mouse peritoneal macrophages, strain MHOM-ET-67/L82, 96 h) | IC50 (P. falciparum strain K1) | IC50 [5] | In vivo efficacy (reduction of parasitemia or increased survival time) [6] | Bioavailability [7] | Terminal half-life based on blood levels [7, 8] | Terminal half-life based on serum levels [7, 8] | Times better activity against Entamoeba histolytica than the standard drug metronidazole (Entamoeba histolytica)
NC1CCC(C23CC4CC(CC(C4)C2)C3)CC1 (stereo not drawn) [1-adamantyl-4-amino-cyclohexane] | 20 to 25 times | – | – | – | – | – | – | – | – | – | – | – | – | – | –
CC(=O)OC[C@H]1O[C@@H]([S-])[C@H](OC(C)=O)[C@@H](OC(C)=O)[C@@H]1OC(C)=O.CCP(CC)CC.[Au+] [Auranofin] | – | 479 | 10 nM | 4790 nM | 2270 nM | 110 nM | did not exhibit activity | > 1470 nM | 1670 nM | 4420 nM | no in vivo efficacy was observed | 17–23% | 29 h | 43 h | 10 times
